Key:
Type in all cases: ADME, organism-based
[1] = Drug metabolism in human slow inactivators assessed as excretion of isonicotinic acid in urine at 1 g, iv by colorimetry; conditions: in vivo
[2] = Drug metabolism in human slow inactivators assessed as excretion of 1,2-diacetylhydrazine in urine at 1 g, iv by colorimetry; conditions: in vivo
[3] = Drug excretion in human subject slow inactivator assessed as sum of isoniazid plus hydrazones, acetylisoniazid, isonicotinic acid and isonicotinuric acid level in urine at 681 mg, iv infused at constant rate 5.4 min measured 116 mins after start of drug injection by colorimetry; conditions: in vivo
[4] = Drug excretion in human subject rapid inactivator assessed as total isonicotinoyl compound level in urine at 670 mg, iv infused at constant rate 5.2min measured 458 mins after start of drug injection by colorimetry; conditions: in vivo
[5] = Drug excretion in human subject rapid inactivator assessed as total isonicotinoyl compound level in urine at 670 mg, iv infused at constant rate 5.2min measured 486 mins after start of drug injection by colorimetry; conditions: in vivo, 8.1 h
[6] = Drug excretion in human subject slow inactivator assessed as sum of isoniazid plus hydrazones, acetylisoniazid, isonicotinic acid and isonicotinuric acid level in urine at 681 mg, iv infused at constant rate 5.4 min measured 339.3 mins after start of drug injection by colorimetry; conditions: in vivo, 5.655 h
[7] = Drug excretion in human subject slow inactivator assessed as sum of isoniazid plus hydrazones, acetylisoniazid, isonicotinic acid and isonicotinuric acid level in urine at 681 mg, iv infused at constant rate 5.4 min measured 496 mins after start of drug injection by colorimetry; conditions: in vivo
[8] = Drug excretion in human subject slow inactivator assessed as sum of isoniazid plus hydrazones, acetylisoniazid, isonicotinic acid and isonicotinuric acid level in urine at 681 mg, iv infused at constant rate 5.4 min measured 554 mins after start of drug injection by colorimetry; conditions: in vivo
[9] = Drug excretion in human subject slow inactivator assessed as sum of isoniazid plus hydrazones, acetylisoniazid, isonicotinic acid and isonicotinuric acid level in urine at 681 mg, iv infused at constant rate 5.4 min measured 586 mins after start of drug injection by colorimetry; conditions: in vivo
[10] = Drug excretion in human subject slow inactivator assessed as sum of isoniazid plus hydrazones, acetylisoniazid, isonicotinic acid and isonicotinuric acid level in urine at 681 mg, iv infused at constant rate 5.4 min measured 747 mins after start of drug injection by colorimetry; conditions: in vivo, 12.45 h
[11] = Drug excretion in human subject slow inactivator assessed as total isonicotinoyl compound level in urine at 681 mg, iv infused at constant rate 5.4 min measured 150 mins after start of drug injection by colorimetry; conditions: in vivo, 2.5 h
[12] = Drug excretion in human subject slow inactivator assessed as total isonicotinoyl compound level in urine at 681 mg, iv infused at constant rate 5.4 min measured 181 mins after start of drug injection by colorimetry; conditions: in vivo
[13] = Drug excretion in human subject slow inactivator assessed as total isonicotinoyl compound level in urine at 681 mg, iv infused at constant rate 5.4 min measured 276.3 mins after start of drug injection by colorimetry; conditions: in vivo, 4.605 h
[14] = Drug excretion in human subject slow inactivator assessed as total isonicotinoyl compound level in urine at 681 mg, iv infused at constant rate 5.4 min measured 305 mins after start of drug injection by colorimetry; conditions: in vivo
[15] = Drug excretion in human subject slow inactivator assessed as total isonicotinoyl compound level in urine at 681 mg, iv infused at constant rate 5.4 min measured 370.3 mins after start of drug injection by colorimetry; conditions: in vivo, 6.17167 h
[16] = Drug excretion in human subject slow inactivator assessed as total isonicotinoyl compound level in urine at 681 mg, iv infused at constant rate 5.4 min measured 554 mins after start of drug injection by colorimetry; conditions: in vivo
[17] = Drug excretion in human slow inactivators urine assessed as isoniazid plus hydrazones level at 1 g, iv by colorimetry; conditions: in vivo
[18] = Drug excretion in human slow inactivators urine assessed as total isonicotinoyl compounds at 1 g, iv by colorimetry; conditions: in vivo
[19] = Drug metabolism in human rapid inactivators assessed as excretion of isonicotinic acid in urine at 1 g, iv by colorimetry; conditions: in vivo
[20] = Drug metabolism in human rapid inactivators assessed as excretion of isonicotinuric acid in urine at 1 g, iv by colorimetry; conditions: in vivo
[21] = Drug metabolism in human rapid inactivators assessed as excretion of 1,2-diacetylhydrazine in urine at 1 g, iv by colorimetry; conditions: in vivo
[22] = Drug metabolism in human slow inactivators assessed as excretion of alpha-ketoglutaric acid isonicotinoylhydrazone in urine at 1 g, iv by colorimetry; conditions: in vivo
[23] = Drug excretion in human subject slow inactivator assessed as total isonicotinoyl compound level in urine at 681 mg, iv infused at constant rate 5.4 min measured 648 mins after start of drug injection by colorimetry; conditions: in vivo, 10.8 h
[24] = Drug excretion in human subject slow inactivator assessed as total isonicotinoyl compound level in urine at 681 mg, iv infused at constant rate 5.4 min measured 677 mins after start of drug injection by colorimetry; conditions: in vivo
[25] = Drug excretion in human subject slow inactivator assessed as total isonicotinoyl compound level in urine at 681 mg, iv infused at constant rate 5.4 min measured 747 mins after start of drug injection by colorimetry; conditions: in vivo, 12.45 h
[26] = Drug excretion in human subject rapid inactivator assessed as sum of isoniazid plus hydrazones, acetylisoniazid, isonicotinic acid and isonicotinuric acid level in urine at 670 mg, iv infused at constant rate 5.2min measured 94 mins after start of drug injection by colorimetry; conditions: in vivo
[27] = Drug excretion in human subject rapid inactivator assessed as sum of isoniazid plus hydrazones, acetylisoniazid, isonicotinic acid and isonicotinuric acid level in urine at 670 mg, iv infused at constant rate 5.2min measured 227 mins after start of drug injection by colorimetry; conditions: in vivo
[28] = Drug excretion in human subject rapid inactivator assessed as sum of isoniazid plus hydrazones, acetylisoniazid, isonicotinic acid and isonicotinuric acid level in urine at 670 mg, iv infused at constant rate 5.2min measured 335 mins after start of drug injection by colorimetry; conditions: in vivo
[29] = Drug excretion in human subject rapid inactivator assessed as sum of isoniazid plus hydrazones, acetylisoniazid, isonicotinic acid and isonicotinuric acid level in urine at 670 mg, iv infused at constant rate 5.2min measured 516 mins after start of drug injection by colorimetry; conditions: in vivo
[30] = Drug excretion in human subject rapid inactivator assessed as total isonicotinoyl compound level in urine at 670 mg, iv infused at constant rate 5.2min measured 32 mins after start of drug injection by colorimetry; conditions: in vivo
[31] = Drug excretion in human subject rapid inactivator assessed as total isonicotinoyl compound level in urine at 670 mg, iv infused at constant rate 5.2min measured 126 mins after start of drug injection by colorimetry; conditions: in vivo, 2.1 h
[32] = Drug excretion in human subject rapid inactivator assessed as total isonicotinoyl compound level in urine at 670 mg, iv infused at constant rate 5.2min measured 227 mins after start of drug injection by colorimetry; conditions: in vivo
[33] = Drug excretion in human subject rapid inactivator assessed as total isonicotinoyl compound level in urine at 670 mg, iv infused at constant rate 5.2min measured 259 mins after start of drug injection by colorimetry; conditions: in vivo

In the case of `NNC(=O)c1ccncc1` [ISONIAZID], the Drug metabolism [1] was 18.1 %molar, the Drug metabolism [2] was 32.3 %molar and the Drug excretion [3] was 32.27 mg. The Drug excretion [4] was 17.2 mg, the Drug excretion [5] was 12.5 mg and the Drug excretion [6] was 33.69 mg. The Drug excretion [7] was 14.26 mg, the Drug excretion [8] was 13.38 mg and the Drug excretion [9] was 13.18 mg. It also gave a Drug excretion [10] of 10.074 mg, a Drug excretion [11] of 38.1 mg and a Drug excretion [12] of 33.6 mg. The Drug excretion [13] was 33.2 mg, the Drug excretion [14] was 27.3 mg and the Drug excretion [15] was 26.6 mg. For the same molecule, the Drug excretion [16] was 13.1 mg, the Drug excretion [17] was 98% and the Drug excretion [18] was 98.8%. It also gave a Drug metabolism [19] of 27.1 %molar, a Drug metabolism [20] of 21.3 %molar and a Drug metabolism [21] of 48.4 %molar. The Drug metabolism [22] was 6.9 %molar, the Drug excretion [23] was 11.6 mg and the Drug excretion [24] was 10.6 mg. The Drug excretion [25] was 9.44 mg, the Drug excretion [26] was 48.1 mg and the Drug excretion [27] was 38.5 mg. It also gave a Drug excretion [28] of 29 mg, a Drug excretion [29] of 16.8 mg and a Drug excretion [30] of 45.9 mg. For the same molecule, the Drug excretion [31] was 43.4 mg, the Drug excretion [32] was 38.8 mg and the Drug excretion [33] was 39.7 mg.
